From ChEMBL document CHEMBL2073929, “Interactions of rifamycin SV and rifampicin with organic anion uptake systems of human liver” (Hepatology, 2002)

T1: Solute carrier organic anion transporter family member 1A2 (Homo sapiens, UniProt P46721)
T1 sequence (P46721 whole entry): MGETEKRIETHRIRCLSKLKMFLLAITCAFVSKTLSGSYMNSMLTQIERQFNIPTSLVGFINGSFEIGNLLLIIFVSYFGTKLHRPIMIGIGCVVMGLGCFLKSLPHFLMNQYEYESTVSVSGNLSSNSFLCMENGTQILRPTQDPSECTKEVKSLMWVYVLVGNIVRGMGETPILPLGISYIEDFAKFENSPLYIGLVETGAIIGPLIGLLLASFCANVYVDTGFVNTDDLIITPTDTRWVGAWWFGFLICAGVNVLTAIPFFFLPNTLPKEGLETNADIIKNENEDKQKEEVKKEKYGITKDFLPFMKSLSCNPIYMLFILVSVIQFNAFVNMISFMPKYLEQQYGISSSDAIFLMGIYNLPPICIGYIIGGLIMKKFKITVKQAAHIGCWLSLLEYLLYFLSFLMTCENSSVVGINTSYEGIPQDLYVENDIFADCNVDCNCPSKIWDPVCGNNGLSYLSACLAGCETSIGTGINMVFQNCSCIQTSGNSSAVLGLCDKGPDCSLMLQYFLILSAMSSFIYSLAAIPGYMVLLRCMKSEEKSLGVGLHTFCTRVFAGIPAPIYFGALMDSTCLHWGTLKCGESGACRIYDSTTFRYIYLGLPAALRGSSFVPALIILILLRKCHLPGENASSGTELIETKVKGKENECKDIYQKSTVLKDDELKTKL

T2: Solute carrier organic anion transporter family member 1B3 (Homo sapiens, UniProt Q9NPD5)
T2 sequence (Q9NPD5 whole entry): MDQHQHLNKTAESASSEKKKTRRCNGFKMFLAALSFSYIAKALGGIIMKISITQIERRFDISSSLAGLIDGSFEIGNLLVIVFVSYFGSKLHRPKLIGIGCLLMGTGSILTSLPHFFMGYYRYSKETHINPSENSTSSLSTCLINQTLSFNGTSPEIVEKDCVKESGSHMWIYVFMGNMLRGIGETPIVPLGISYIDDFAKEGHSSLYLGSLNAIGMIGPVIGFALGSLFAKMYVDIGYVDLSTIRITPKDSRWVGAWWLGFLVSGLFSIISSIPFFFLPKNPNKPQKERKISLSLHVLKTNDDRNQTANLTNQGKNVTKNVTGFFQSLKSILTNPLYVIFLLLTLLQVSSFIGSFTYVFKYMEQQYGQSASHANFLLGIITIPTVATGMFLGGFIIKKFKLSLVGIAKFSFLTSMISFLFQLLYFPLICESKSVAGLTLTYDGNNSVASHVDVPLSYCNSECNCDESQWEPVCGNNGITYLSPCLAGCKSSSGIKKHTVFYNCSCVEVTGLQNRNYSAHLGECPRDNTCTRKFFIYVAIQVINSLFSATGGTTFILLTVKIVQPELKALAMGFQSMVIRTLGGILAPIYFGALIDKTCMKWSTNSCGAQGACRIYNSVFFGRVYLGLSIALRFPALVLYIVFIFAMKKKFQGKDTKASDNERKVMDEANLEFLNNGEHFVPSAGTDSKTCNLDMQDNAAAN

T3: Solute carrier organic anion transporter family member 1B1 (Homo sapiens, UniProt Q9Y6L6)
T3 sequence (Q9Y6L6 whole entry): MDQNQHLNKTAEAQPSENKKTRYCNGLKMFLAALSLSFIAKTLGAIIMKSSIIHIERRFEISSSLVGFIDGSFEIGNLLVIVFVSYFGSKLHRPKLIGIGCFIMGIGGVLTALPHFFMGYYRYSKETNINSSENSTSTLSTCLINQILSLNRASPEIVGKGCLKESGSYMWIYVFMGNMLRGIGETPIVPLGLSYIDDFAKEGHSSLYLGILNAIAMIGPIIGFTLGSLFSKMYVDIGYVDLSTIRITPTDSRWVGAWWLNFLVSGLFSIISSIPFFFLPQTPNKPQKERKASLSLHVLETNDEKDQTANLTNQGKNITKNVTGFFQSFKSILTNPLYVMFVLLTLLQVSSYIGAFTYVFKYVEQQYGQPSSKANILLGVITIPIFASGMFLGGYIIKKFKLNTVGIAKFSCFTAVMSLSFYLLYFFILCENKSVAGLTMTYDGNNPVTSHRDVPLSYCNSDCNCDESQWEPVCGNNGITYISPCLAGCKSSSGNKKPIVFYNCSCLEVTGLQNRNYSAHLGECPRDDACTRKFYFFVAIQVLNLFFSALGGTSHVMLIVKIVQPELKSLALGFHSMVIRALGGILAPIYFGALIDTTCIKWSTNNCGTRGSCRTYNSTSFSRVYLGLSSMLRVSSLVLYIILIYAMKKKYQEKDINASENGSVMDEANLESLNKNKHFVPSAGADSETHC

T4: Solute carrier organic anion transporter family member 1B3 (OATP1B3) (Homo sapiens, UniProt Q9NPD5)
T4 sequence (Q9NPD5 whole entry): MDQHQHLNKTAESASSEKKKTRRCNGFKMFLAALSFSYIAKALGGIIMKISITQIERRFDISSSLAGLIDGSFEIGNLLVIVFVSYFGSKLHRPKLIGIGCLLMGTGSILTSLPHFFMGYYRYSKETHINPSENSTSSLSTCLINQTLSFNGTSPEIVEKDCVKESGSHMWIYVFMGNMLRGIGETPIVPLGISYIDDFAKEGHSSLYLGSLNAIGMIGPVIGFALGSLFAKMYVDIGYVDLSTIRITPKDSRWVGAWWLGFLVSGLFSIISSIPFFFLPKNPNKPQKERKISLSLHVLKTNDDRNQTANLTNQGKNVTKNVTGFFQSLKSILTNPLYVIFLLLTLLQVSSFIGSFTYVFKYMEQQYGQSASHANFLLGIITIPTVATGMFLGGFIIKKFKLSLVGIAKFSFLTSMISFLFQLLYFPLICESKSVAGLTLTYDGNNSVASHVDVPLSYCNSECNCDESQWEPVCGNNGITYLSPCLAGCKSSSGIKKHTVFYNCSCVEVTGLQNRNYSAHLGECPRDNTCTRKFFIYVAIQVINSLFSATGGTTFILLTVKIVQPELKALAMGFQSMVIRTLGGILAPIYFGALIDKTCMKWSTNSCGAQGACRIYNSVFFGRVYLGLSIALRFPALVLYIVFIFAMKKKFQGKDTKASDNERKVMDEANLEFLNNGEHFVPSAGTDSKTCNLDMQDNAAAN

T5: Solute carrier organic anion transporter family member 2B1 (Homo sapiens, UniProt O94956)
T5 sequence (O94956 whole entry): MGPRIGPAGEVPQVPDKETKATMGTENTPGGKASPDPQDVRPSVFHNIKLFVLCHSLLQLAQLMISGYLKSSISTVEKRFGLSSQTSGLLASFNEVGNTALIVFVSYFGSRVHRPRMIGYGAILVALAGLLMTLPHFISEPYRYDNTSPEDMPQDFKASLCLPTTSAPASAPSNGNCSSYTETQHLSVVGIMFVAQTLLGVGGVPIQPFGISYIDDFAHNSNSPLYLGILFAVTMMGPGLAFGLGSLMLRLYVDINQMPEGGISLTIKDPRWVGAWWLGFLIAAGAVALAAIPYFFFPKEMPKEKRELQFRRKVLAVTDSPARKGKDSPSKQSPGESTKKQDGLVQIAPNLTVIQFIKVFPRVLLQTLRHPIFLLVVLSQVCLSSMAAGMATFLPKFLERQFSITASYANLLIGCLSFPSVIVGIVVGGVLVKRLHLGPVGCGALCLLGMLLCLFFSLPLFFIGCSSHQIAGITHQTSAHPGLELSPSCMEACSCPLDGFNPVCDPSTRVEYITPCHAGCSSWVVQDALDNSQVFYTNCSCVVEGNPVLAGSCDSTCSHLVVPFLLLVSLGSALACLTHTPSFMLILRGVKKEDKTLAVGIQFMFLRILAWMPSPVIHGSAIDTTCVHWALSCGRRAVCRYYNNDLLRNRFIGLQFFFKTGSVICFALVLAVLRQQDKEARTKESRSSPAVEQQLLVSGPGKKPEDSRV


What was measured:
[1] = molecular target: T1, Solute carrier organic anion transporter family member 1A2; experiment: (§1) TP_TRANSPORTER: inhibition of BSP uptake in Xenopus laevis oocytes; assay type: functional, cell-based, Oocyte
[2] = molecular target: T2, Solute carrier organic anion transporter family member 1B3; experiment: as §1; assay type: functional, cell-based, Oocyte
[3] = molecular target: T3, Solute carrier organic anion transporter family member 1B1; experiment: as §1; assay type: functional, cell-based, Oocyte
[4] = molecular target: T4, Solute carrier organic anion transporter family member 1B3 (OATP1B3); experiment: (§2) TP_TRANSPORTER: uptake in Xenopus laevis oocytes; assay type: functional, cell-based, Oocyte; details: Xenopus laevis oocytes expressing the transporter
[5] = molecular target: T1, Solute carrier organic anion transporter family member 1A2; experiment: as §2; assay type: functional, cell-based; details: oocyte
[6] = molecular target: T5, Solute carrier organic anion transporter family member 2B1; experiment: as §2; assay type: functional, cell-based; details: oocyte
[7] = molecular target: T5, Solute carrier organic anion transporter family member 2B1; experiment: as §1; assay type: functional, cell-based, Oocyte
[8] = substrate: CO[C@H]1/C=C/O[C@@]2(C)Oc3c(C)c(O)c4c(O)c(c(/C=N/N5CCN(C)CC5)c(O)c4c3C2=O)NC(=O)/C(C)=C\C=C\[C@H](C)[C@H](O)[C@@H](C)[C@@H](O)[C@@H](C)[C@H](OC(C)=O)[C@@H]1C; experiment: as §2; assay type: functional, cell-based, Oocyte

| Molecule | Ki [1] | Ki [2] | Ki [3] | Km [4] | Activity [5] | Activity [6] | Ki [7] | Km [8] |
| --- | --- | --- | --- | --- | --- | --- | --- | --- |
| CO[C@H]1/C=C/O[C@@]2(C)Oc3c(C)c(O)c4c(O)c(c(/C=N/N5CCN(C)CC5)c(O)c4c3C2=O)NC(=O)/C(C)=C\C=C\[C@H](C)[C@H](O)[C@@H](C)[C@@H](O)[C@@H](C)[C@H](OC(C)=O)[C@@H]1C [RIFAMPIN] | 51 µM | 5 µM | 17 µM | 2.3 µM | is not a substrate [-] | is not a substrate [-] | – | – |
| CO[C@H]1/C=C/O[C@@]2(C)Oc3c(C)c(O)c4c(O)c(cc(O)c4c3C2=O)NC(=O)/C(C)=C\C=C\[C@H](C)[C@H](O)[C@@H](C)[C@@H](O)[C@@H](C)[C@H](OC(C)=O)[C@@H]1C [RIFAMYCIN] | 11 µM | 3 µM | 2 µM | – | – | – | 3 µM | – |
| Solute carrier organic anion transporter family member 1B1 (Homo sapiens) (protein) MDQNQHLNKTAEAQPSENKKTRYCNGLKMFLAALSLSFIAKTLGAIIMKSSIIHIERRFEISSSLVGFIDGSFEIGNLLVIVFVSYFGSKLHRPKLIGIGCFIMGIGGVLTALPHFFMGYYRYSKETNINSSENSTSTLSTCLINQILSLNRASPEIVGKGCLKESGSYMWIYVFMGNMLRGIGETPIVPLGLSYIDDFAKEGHSSLYLGILNAIAMIGPIIGFTLGSLFSKMYVDIGYVDLSTIRITPTDSRWVGAWWLNFLVSGLFSIISSIPFFFLPQTPNKPQKERKASLSLHVLETNDEKDQTANLTNQGKNITKNVTGFFQSFKSILTNPLYVMFVLLTLLQVSSYIGAFTYVFKYVEQQYGQPSSKANILLGVITIPIFASGMFLGGYIIKKFKLNTVGIAKFSCFTAVMSLSFYLLYFFILCENKSVAGLTMTYDGNNPVTSHRDVPLSYCNSDCNCDESQWEPVCGNNGITYISPCLAGCKSSSGNKKPIVFYNCSCLEVTGLQNRNYSAHLGECPRDDACTRKFYFFVAIQVLNLFFSALGGTSHVMLIVKIVQPELKSLALGFHSMVIRALGGILAPIYFGALIDTTCIKWSTNNCGTRGSCRTYNSTSFSRVYLGLSSMLRVSSLVLYIILIYAMKKKYQEKDINASENGSVMDEANLESLNKNKHFVPSAGADSETHC | – | – | – | – | – | – | – | 13 µM |
